Key:
[1] = Stability of DEM and DEX in rat plasma; assay type: physicochemical
[2] = system: cytochrome P450 3A4 (CYP3A4); settings: cited from earlier work
[3] = system: Cytochrome P450 2D6 (CYP2D6); settings: cited from earlier work
CYP3A4 = settings: in vitro; cited from earlier work
[4] = cited from earlier work
[5] = autosampler stability (64 h and 3 min), HQC
[6] = autosampler stability (64 h and 3 min), LQC
[7] = benchtop stability (19 h and 28 min), HQC, rat plasma
[8] = benchtop stability (19 h and 28 min), LQC, rat plasma
[9] = freeze thaw stability (five cycles), HQC
[10] = freeze thaw stability (five cycles), HQC: nominal DEM 302.52, DEX 156.76 ng/mL
[11] = freeze thaw stability (five cycles), LQC
[12] = freeze thaw stability (five cycles), LQC: nominal DEM 0.58, DEX 0.30 ng/mL
[13] = long-term stability (49 days), HQC
[14] = long-term stability (49 days), LQC
[15] = long-term stability (49 days), −70 °C, HQC: nominal DEM 302.52, DEX 156.76 ng/mL
[16] = long-term stability (49 days), −70 °C, LQC: nominal DEM 0.58, DEX 0.30 ng/mL
[17] = processed sample stability (28 h and 21 min), HQC
[18] = processed sample stability (28 h and 21 min), LQC
[19] = wet extract stability (42 h and 12 min), HQC
[20] = wet extract stability (42 h and 12 min), LQC
[21] = wet extract stability (42 h and 12 min), LQC: nominal DEM 0.58, DEX 0.30 ng/mL

SMILES	% difference [1, 5]	% difference [1, 6]	% difference [1, 7]	% difference [1, 8] [%]	% difference [1, 9]	calculated conc. [1, 10] [ng/mL]	% difference [1, 11] [%]	calculated conc. [1, 12] [ng/mL]	% difference [1, 13]	% difference [1, 14] [%]	calculated conc. [1, 15] [ng/mL]	calculated conc. [1, 16] [ng/mL]	% difference [1, 17]	% difference [1, 18]	% difference [1, 19]	% difference [1, 20] [%]	calculated conc. [1, 21] [ng/mL]	other results
COc1ccc2c(c1)[C@]13CCCC[C@@H]1[C@H](C2)N(C)CC3 [DEM, Dextromethorphan]	2.32%	3.51%	–0.36%	5.29	–2.53%	293.62 ± 16.24	1.72	0.57 ± 0.03	–0.54%	3.51	299.62 ± 9.41	0.58 ± 0.03	2.35%	–0.06%	–0.83%	8.86	0.61 ± 0.05	share of metabolism of DEM to 3-methoxymorphinan by CYP3A4 [2]: 90%; share of metabolism of DEM to DEX by CYP2D6 [3]: 80%
COc1cc2c(cc1O)CC[n+]1cc3c(OC)c(OC)ccc3cc1-2 [M38, jatrorrhizine]	–	–	–	–	–	–	–	–	–	–	–	–	–	–	–	–	–	inhibition of CYP3A4 (CYP3A4): reported to inhibit CYP3A4
CN1CC[C@@]23CCCC[C@@H]2[C@@H]1Cc1ccc(O)cc13 [DEX, dextrorphan]	–3.41%	–3.45%	–0.70%	0.00	0.66%	156.02 ± 1.22	3.45	0.30 ± 0.02	0.32%	3.45	155.49 ± 7.51	0.30 ± 0.02	–1.99%	3.45%	–0.69%	6.90	0.31 ± 0.02	fraction rapidly glucuronidated [4]: 98%

Source: article PMC11154920 (ACS Omega, 2024)
